# Assay results published in patent US10213407B2, “Compounds and methods for inhibiting production of trimethylamine” (The Procter & Gamble Company, priority 2015, dated 2019).
# Test system: Proteus mirabilis 29906 (Pm) lysate
# Experiment: Inhibition of formation of TMA from choline in Proteus mirabilis lysate (d9-choline to d9-TMA, LC-MS/MS)
# Assay type: biochemical
# Details: conversion of choline to TMA; Pm lysate 1.5 mg/mL protein, 50 μM d9-choline chloride, 37° C., two hours; read-out: TMA Inhibition (IC50, mol/L)
# Method: EXAMPLE 2 Assay for identifying and characterizing compounds that inhibit the formation of TMA from choline.
# This example provides an exemplary assay for identifying and characterizing compounds that inhibit the formation of TMA from choline.
# Proteus mirabilis 29906 (Pm) strain was grown aerobically overnight in 500 ml of Nutrient Broth media (3 g/L beef extract, 5 g/L Peptone; Difco #234000) at 37° C. with 250 rpm shaking. The biomass was pelleted by centrifugation at 6000×g for 12 minutes at 4° C. The cell pellet was suspended in 240 mL of ice-cold 1× Phosphate Buffered Saline (Ca^2+ and Mg^2+ free). Ninety micrograms of Lysozyme (Sigma #L6876 Lot #SLBG8654V; Sigma-Aldrich Corp., St. Louis, Mo.) was added and incubated with 320 rpm shaking for 30 minutes at 4° C. Lysis was achieved via French press with a 4° C. prechilled 1″ diameter chamber at 1000 psi (high ratio; internal PSI equivalent ˜16000). The lysate was centrifuged at 6,000×g for 12 minutes at 4° C. to pellet extra debris. A protein concentration of the centrifuged lysate supernatant was determined by a BCA Protein Assay Kit (Pierce #23225; Thermo Fisher Scientific Co., Waltham, Mass.) and protein concentration adjusted to 3 mg/ml with 1× Dulbecco's phosphate buffered saline (DPBS). The centrifuged supernatant lysate was aliquoted into 20 mL volumes and stored frozen at −80° C.
# Proteus mirabilis 29906 (Pm) lysate was diluted to 1.5 mg/mL protein with 1×DPBS. Choline chloride (CC) (1M stock) was added to reach a final concentration of 2.5 mM choline chloride. The mixture was mixed using a vortex mixer for approximately 15 seconds and incubated at 37° C. for 22 hours. After incubation, 150 μL of CC-treated Pm lysate was dispensed into a deep-well plate (polypropylene, 2 mL volume, Corning Axygen catalogue #P-DW-20-C). Candidate IC50 compounds from TABLE 1 and vehicle control (respective vehicle control of DMSO or water), or control compounds (IC50 control, 8-Quinolinol hemisulfate salt (Sigma Catalog #55100)) were added at a 1:100 dilution (e.g., 1.5 μL per well). The plates were agitated on a plate shaker for 1 minute. d9-choline chloride (1.5 μL of 5 mM) was added to all wells to reach a final d9-choline chloride concentration of 50 μM.
# The plates were again agitated on a plate shaker for 1 minute and incubated at 37° C. for two hours. After incubation, 1.5 μL of formic acid was added to each well (final concentration=1% formic acid). The plates were agitated on a plate shaker for 1 minute and placed on ice. Cell lysate samples were spiked with stable isotope labeled internal standard (22.5 μL of 6 μg/mL of 13C3-trimethylamine (13C3-TMA) was added to each sample), then d9-trimethylamine (d9-TMA), trimethylamine (TMA) and 13C3-TMA were isolated from the lysate after protein precipitation as described below. Acetonitrile acidified with 0.1% formic acid, 600 μL, was added to each sample which was then centrifuged (2,100 g for 20 minutes) to pellet the protein and other precipitates. The supernatant was removed and analyzed as described below. The TMA, d9-TMA and 13C3-TMA in the isolated supernatant samples were subjected to gradient High Performance Liquid Chromatography (HPLC) analysis on a Waters Atlantis HILIC Silica column, from Waters Corp., Milford, Mass., (2.1×50 mm, 3 μm particles) with an Atlantis Silica HILIC Sentry guard column, from Waters Corp., Milford, Mass., (100 Å, 3 μm, 2.1 mm×10 mm), 10 mM ammonium formate in water with 0.1% formic acid as mobile phase A and 0.1% formic acid in acetonitrile as mobile phase B. Detection and quantitation was achieved by tandem mass spectrometry operating under multiple reaction monitoring (MRM) MS/MS conditions (m/z 60.1→44.1 for TMA, m/z 69.1→49.1 for d9-TMA, m/z 63.0→46.1 for 13C3-TMA). TMA and d9-TMA calibration standards (STD), prepared in 80/20/0.1% acetonitrile/Water/Formic Acid, were used to construct a regression curve by plotting the response (peak area TMA/peak area 13C3-TMA) versus concentration for each standard. […]
row,SMILES,IC50
1,"CC[N+](CC)(CCCN=C=S)CCOc1ccccc1 [Compound 10, N-(2-Phenoxyethyl)-3-isothiocyanato-N,N-diethylpropan-1-aminium triflate]",29.6 µM
2,"C[N+](C)(CCN=C=S)CCOCc1ccccc1 [Compound 11, N-(2-Benzyloxyethyl)-2-isothiocyanato-N,N-dimethylethan-1-aminium triflate]",16.1 µM
3,"CC[N+](CC)(CCCN=C=S)CCOCc1ccccc1 [Compound 12, N-(2-Benzyloxyethyl)-3-isothiocyanato-N,N-diethylpropan-1-aminium triflate]",29.1 µM
4,"C[N+](C)(CCN=C=S)CCOc1ccccc1 [Compound 13, N-(2-Phenoxyethyl)-2-isothiocyanato-N,N-dimethylethan-1-aminium triflate]",1.33 µM
5,"C[N+](C)(CCBr)CCN=C=S [Compound 14, N-(2-Bromoethyl)-2-isothiocyanato-N,N-dimethylethan-1-aminium triflate]",24.9 µM
6,"C[N+](C)(CCN=C=S)CC1CO1 (stereo not drawn) [Compound 15, N-(Oxiranylmethyl)-2-isothiocyanato-N,N-dimethylethan-1-aminium triflate]",194 µM
7,"CC[N+](CC)(CCCN=C=S)CC1CO1 (stereo not drawn) [Compound 16, N-(Oxiranylmethyl)-3-isothiocyanato-N,N-diethylpropan-1-aminium triflate]",39.8 µM
8,"COCC[N+](C)(C)CCN=C=S [Compound 17, N-(2-Methoxyethyl)-2-isothiocyanato-N,N-dimethylethan-1-aminium triflate]",31.6 µM
9,"CC[N+](CC)(CCCN=C=S)CCOC [Compound 18, N-(2-Methoxyethyl)-3-isothiocyanato-N,N-diethylpropan-1-aminium triflate]",39.8 µM
10,"CCOCC[N+](C)(C)CCN=C=S [Compound 19, N-(2-Ethoxyethyl)-2-isothiocyanato-N,N-dimethylethan-1-aminium triflate]",63.1 µM
11,"CCOCC[N+](CC)(CC)CCCN=C=S [Compound 20, N-(2-Ethoxyethyl)-3-isothiocyanato-N,N-diethylpropan-1-aminium triflate]",19.9 µM
12,"COCCC[N+](C)(C)CCN=C=S [Compound 21, N-(3-Methoxypropyl)-2-isothiocyanato-N,N-dimethylethan-1-aminium triflate]",31.6 µM
13,CC[N+](CC)(CCCN=C=S)CCCOC [Compound 22],31.6 µM
14,"C[N+](C)(CCCl)CCN=C=S [Compound 23, N-(2-Chloroethyl)-2-isothiocyanato-N,N-dimethylethan-1-aminium triflate]",25.1 µM
15,"C[N+](C)(CCCCl)CCN=C=S [Compound 24, N-(3-Chloropropyl)-2-isothiocyanato-N,N-dimethylethan-1-aminium triflate]",63.1 µM
16,"CC[N+](CC)(CCCl)CCCN=C=S [Compound 25, N-(2-Chloroethyl)-3-isothiocyanato-N,N-diethylpropan-1-aminium triflate]",19.9 µM
17,"CC[N+](CC)(CCCCl)CCCN=C=S [Compound 26, N-(3-Chloropropyl)-3-isothiocyanato-N,N-diethylpropan-1-aminium triflate]",50.1 µM
18,"CC[N+](CC)(CCF)CCCN=C=S [Compound 27, N-(2-Fluoroethyl)-3-isothiocyanato-N,N-diethylpropan-1-aminium triflate]",31.6 µM

row,SMILES,IC50
1,"S=C=NCC[n+]1ccccc1 [Compound 28, 1-(2-Isothiocyanatoethyl)pyridin-1-ium bromide]",31.6 µM
2,"Oc1ccc[n+](CCN=C=S)c1 [Compound 29, 1-(2-Isothiocyanatoethyl)-3-hydroxypyridinium bromide]",1260 µM
3,"OCc1cccc[n+]1CCN=C=S [Compound 30, 1-(2-Isothiocyanatoethyl)-(2-hydroxymethyl)pyridinium triflate]",25.1 µM
4,"OCc1cccc[n+]1CCCN=C=S [Compound 31, 2-(hydroxymethyl)-1-(3-isothiocyanatopropyl)pyridin-1-ium trifluoromethanesulfonate]",251 µM
5,"Oc1ccc[n+](CCCN=C=S)c1 [Compound 32, 3-hydroxy-1-(3-isothiocyanatopropyl)pyridin-1-ium trifluoromethanesulfonate]",1990 µM
6,"OCC[N+]1(CCN=C=S)CCCCC1 [Compound 33, 1-(2-hydroxyethyl)-1-(2-isothiocyanatoethyl)piperidin-1-ium trifluoromethanesulfonate]",200 µM
7,"C[N+]1(CCN=C=S)CCCCC1CO (stereo not drawn) [Compound 34, 2-(hydroxymethyl)-1-(2-isothiocyanatoethyl)-1-methylpiperidin-1-ium trifluoromethanesulfonate]",316 µM
8,"OCC[N+]1(CCCN=C=S)CCCCC1 [Compound 35, 1-(2-hydroxyethyl)-1-(3-isothiocyanatopropyl)piperidin-1-ium trifluoromethanesulfonate]",1260 µM
9,"C[N+](C)(CCO)CCCN=C=S [Compound 36, N-(2-hydroxyethyl)-3-isothiocyanato-N,N-dimethylpropan-1-aminium trifluoromethanesulfonate]",100 µM
10,"C#CC[N+](C)(C)CCN=C=S [Compound 37, N-(2-isothiocyanatoethyl)-N,N-dimethylprop-2-yn-1-aminium bromide]",1.99 µM
11,"C=C(C[N+](C)(C)CCN=C=S)C(=O)OC [Compound 38, N-(2-isothiocyanatoethyl)-2-(methoxycarbonyl)-N,N-dimethylprop-2-en-1-aminium bromide]",14.1 µM
12,"C[N+]1(CCN=C=S)CCC(O)CC1 (stereo not drawn) [Compound 39, 4-hydroxy-1-(2-isothiocyanatoethyl)-1-methylpiperidin-1-ium bromide]",25.9 µM
13,"C[N+]1(CCN=C=S)CCOCC1 [Compound 40, 4-Methyl-4-(2-isothiocyanatoethyl)morpholinium trifluoromethanesulfonate]",286 µM
14,"C[N+]1(CCN=C=S)CCCCC1 [Compound 41, 1-Methyl-1-(2-isothiocyanatoethyl)piperidium trifluoromethanesulfonate]",31.7 µM
15,"S=C=NCC[N+]12CCC(CC1)CC2 [Compound 42, 1-(2-Isothiocyanatoethyl)quinuclidinium trifluoromethanesulfonate]",12.1 µM
16,"C[N+]1(CCCN=C=S)CCOCC1 [Compound 43, 4-Methyl-4-(3-isothiocyanatopropyl)morpholinium trifluoromethanesulfonate]",> 1000 µM
17,"C[N+]1(CCCN=C=S)CCCCC1 [Compound 44, 1-Methyl-1-(3-isothiocyanatopropyl)piperidinium trifluoromethanesulfonate]",> 1000 µM
18,"S=C=NCCC[N+]12CCC(CC1)CC2 [Compound 45, 1-(3-Isothiocyanatopropyl)quinuclidinium trifluoromethanesulfonate]",115 µM
